Reference: paper PMC4237199 (The Prostate, 2014)

Biological target: Prostate-specific membrane antigen (PSMA), canine (Canis lupus, UniProt I4IY07)
Assay: HPLC-based enzyme inhibition assay
Type: biochemical

Prostate-specific membrane antigen (PSMA), canine, sequence (I4IY07 29-779): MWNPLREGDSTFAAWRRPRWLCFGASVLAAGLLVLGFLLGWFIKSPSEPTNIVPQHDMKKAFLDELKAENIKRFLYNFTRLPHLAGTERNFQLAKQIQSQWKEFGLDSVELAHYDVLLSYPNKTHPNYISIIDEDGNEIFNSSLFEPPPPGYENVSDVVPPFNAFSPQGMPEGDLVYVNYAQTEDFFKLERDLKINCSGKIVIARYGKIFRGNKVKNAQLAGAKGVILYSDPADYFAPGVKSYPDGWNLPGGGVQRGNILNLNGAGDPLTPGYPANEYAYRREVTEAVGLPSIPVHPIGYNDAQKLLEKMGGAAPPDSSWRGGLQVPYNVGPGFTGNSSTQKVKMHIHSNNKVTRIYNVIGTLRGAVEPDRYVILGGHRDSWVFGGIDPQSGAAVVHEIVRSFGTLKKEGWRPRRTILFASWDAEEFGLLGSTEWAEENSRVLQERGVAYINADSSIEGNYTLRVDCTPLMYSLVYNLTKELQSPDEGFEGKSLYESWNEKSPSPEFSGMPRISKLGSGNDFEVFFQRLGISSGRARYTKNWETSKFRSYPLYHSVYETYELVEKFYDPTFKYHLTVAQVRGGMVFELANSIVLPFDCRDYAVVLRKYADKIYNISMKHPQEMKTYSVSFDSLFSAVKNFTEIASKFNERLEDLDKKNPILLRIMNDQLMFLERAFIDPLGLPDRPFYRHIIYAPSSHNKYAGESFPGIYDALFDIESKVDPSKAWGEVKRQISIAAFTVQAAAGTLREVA

FAMX-CTT-54 [compound 2]
IC50: 1.6 nM
